Laboratory results reported in patent publication US9512091B2, “Compositions and methods for the modulation of specific amidases for N-acylethanolamines for use in the therapy of inflammatory diseases” (Epitech Group S.r.l., priority 2012, dated 2016).

Columns and labels:
[1] = target: T1, NAAA (N-Acylethanolamine Hydrolizing Acid Amidase) (Homo sapiens, UniProt Q02083); assay: Activity on the NAAA enzyme, membranes of HEK-NAAA cells, [14C]PEA hydrolysis; format: biochemical; conditions: HEK-NAAA membranes 50 μg/sample, [14C]PEA 20 μM, 30 min at 37° C.; mean of 10 experiments; read-out: Inhibition of NAAA IC50 (after 30 min incubation)
T1 construct: expressed in transfected cells; host or cells: HEK cells permanently transfected with NAAA (HEK-NAAA); 12000 g membrane fraction
T1 sequence (Q02083 29-359): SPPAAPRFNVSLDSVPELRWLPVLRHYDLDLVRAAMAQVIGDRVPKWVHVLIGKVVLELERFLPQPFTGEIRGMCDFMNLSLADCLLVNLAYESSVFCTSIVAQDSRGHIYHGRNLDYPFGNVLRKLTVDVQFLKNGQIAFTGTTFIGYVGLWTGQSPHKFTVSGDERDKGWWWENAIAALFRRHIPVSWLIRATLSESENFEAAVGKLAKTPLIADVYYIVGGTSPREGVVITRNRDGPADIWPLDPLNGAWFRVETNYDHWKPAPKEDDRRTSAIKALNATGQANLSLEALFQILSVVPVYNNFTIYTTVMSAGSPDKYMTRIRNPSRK
Protocol: The effect of the samples being analysed on the enzymatic activity of the NAAA (N-Acylethanolamine Hydrolizing Acid Amidase) was determined on suitably permanently transfected cellular lines (HEK-NAAA). The cells were homogenised using TRIS-HCl 20 Mm (pH 7.4) by means of dounce. Subsequently a mild centrifugation (10 min, 800 g, 4° C.) was carried out for removing the cellular debris. The cellular fraction containing the membranes was obtained by means of subsequent centrifugation (30 min, 12000 g, 4° C.). The membranes (50 μg/sample) were incubated for 30 min at 37° C. with [^14C]PEA (20 μM; 10000 cpm/sample; 5 nCi/nmols) in presence and in absence of the substances to be tested. The incubation was blocked by adding 2 volumes of CHCl3/CH3OH (1:1/v:v). The radioactivity associated to the aqueous phase containing [^14C]Ethanolamine (produced by the hydrolysis of the radioactive substrate) was determined by means of β-Counter (Beckman Counter, LS6500 Scintillation Counters, Milan).

[2] = Solubility of the prepared product; format: physicochemical; conditions: for solubility / Solubility in ethanol: ethanol; for solubility: organic solvent or mixture
[3] = system: edema of the legs induced by sub-plantar carrageenan; assay: Carrageenan edema of the legs, plantar volume by plethysmometer; format: in vivo, rat; conditions: for increase of plantar volume in percentage with respect to carrageenan alone (carrageenan=100): rat, PEA 33 μM/Kg, PEA-OXA (30 mg/Kg) μM/Kg, 5 experiments
Protocol: The experimental model of edema of the legs is induced through sub-plantar injection of a carrageenan solution (containing 50 μl of sterile saline solution and 1% of carrageenan) in the right leg of the animal (rat).
At specific time intervals the plantar volume is measured by means of a plethysmometer (Ugo Basile, Milan, Italy). The increase of the plantar volume is evaluated as the difference between the value obtained in the specific time intervals and the volume at the basal (time 0) measured immediately before the administration of carrageenan.
The data obtained from 5 different experiments, each involving 10 animals per group, were tabled (tab 2) in percentage with respect to the animals treated with carrageenan alone (carrageenan=100): […]

hepatic esterases = conditions: prior-art statement on poor selectivity; cited from earlier work

| Structure (SMILES) | IC50 [1] | solubility [2] | Solubility in water [2] | other results |
| --- | --- | --- | --- | --- |
| O=C(CCc1ccccc1)N[C@H]1COC1=O [(S)-N-(2-oxo-3-oxetanyl)-3-phenylpropionamide, reference compound] | 0.42 µM | – | – | – |
| CCCCCCCCCCCCCCCC1=NC(C)(C)CO1 [Example 5, 2-pentadecyl-4,4-dimethyl-2-oxazoline] | – | > 10000 µg/mL | poorly soluble | – |
| CCCCCCCCCCCCCCCC1=NC(CO)(CO)CO1 [Example 6, 2-pentadecyl-4,4-bis(hydroxymethyl)-2-oxazoline] | – | > 10000 µg/mL | poorly soluble | – |
| CCCCCCCCCCCCCCC1=NCCO1 [Example 7, 2-tetradecyl-2-oxazoline] | – | > 10000 µg/mL | poorly soluble | melting point: 41 to 44 °C |
| CCCCCCCCCCCCCCCCC1=NCCO1 [Example 8, 2-hexadecyl-2-oxazoline] | – | > 10000 µg/mL | poorly soluble | melting point: 49 to 51 °C |
| CCCCCCCCCCCCCCCC1=NC[C@@H](C)O1 [Example 9, 2-pentadecyl-5(R)-methyl-2-oxazoline] | – | > 10000 µg/mL | poorly soluble | – |
| CCCCCCCCCCCCCCCC1=NC[C@H](C)O1 [Example 10, 2-pentadecyl-5(S)-methyl-2-oxazoline] | – | > 10000 µg/mL | poorly soluble | – |
| CCCCCCCCCCCCCCCC1=N[C@H](C)CO1 [Example 11, 2-pentadecyl-4(R)-methyl-2-oxazoline] | – | > 10000 µg/mL | poorly soluble | – |
| CCCCCCCCCCCCCCCC1=N[C@@H](C)CO1 [Example 12, 2-pentadecyl-4(S)-methyl-2-oxazoline] | – | > 10000 µg/mL | poorly soluble | – |
| CCCCCCCCCCCCCCCC1=NC(CO)CO1 (centres unmarked) [Example 13, 2-pentadecyl-4-hydroxymethyl-2-oxazoline] | – | > 10000 µg/mL | poorly soluble | – |
| CCCCCCCCCCCCCCCC1=NC(C(=O)OC)CO1 (centres unmarked) [Example 14, 2-pentadecyl-4-methyloxycarbonyl-2-oxazoline] | – | > 10000 µg/mL | poorly soluble | – |
| CCCCCCCCCCCCCCCC1=NC(C(=O)O)CO1 (centres unmarked) [Example 14b, 2-pentadecyl-4-carboxy-2-oxazoline] | – | > 10000 µg/mL | poorly soluble | – |
| CCCCCCCCCCCCCCCC1=NCCCO1 [Example 15, 2-pentadecyl-2-oxazine] | – | – | poorly soluble | Solubility in ethanol [2]: > 10000 µg/mL |
| CCCCCCCCCCCCCCCC1=NCCS1 [Example 16, 2-pentadecyl-2-thiazoline] | – | > 10000 µg/mL | poorly soluble | – |
| CCCCCCCCCCCCCC(=O)NCCO [MEA, Myristoyl ethanolamide, reference compound] | > 50 µM | – | – | – |
| CCCCCCCCCCCCCC1=NCCO1 [MEA-OXA, 2-tridecyl-2-oxazoline] | 41.5 ± 0.032 µM | > 10000 µg/mL | poorly soluble | – |
| CCCCCCCC/C=C\CCCCCCCC(=O)NCCO [OEA, Oleoylethanolamine, reference compound] | > 50 µM | – | – | – |
| CCCCCCCCC=CCCCCCCCC1=NCCO1 [OEA-OXA, 2-(8-heptadecenyl)-2-oxazoline] | 38.4 ± 0.034 µM | > 10000 µg/mL | poorly soluble | – |
| CCCCCCCCCCCCCCCC(=O)NCCO [PEA, Palmitoylethanolamide, reference compound] | > 50 µM | – | – | increase of plantar volume in percentage with respect to carrageenan alone (carrageenan=100) ([3]; 30 min): 89.2 ± 2.2%; increase of plantar volume in percentage with respect to carrageenan alone (carrageenan=100) ([3]; 1 hr): 82 ± 1.8%; increase of plantar volume in percentage with respect to carrageenan alone (carrageenan=100) ([3]; 2 hrs): 78.3 ± 1.6%; increase of plantar volume in percentage with respect to carrageenan alone (carrageenan=100) ([3]; 3 hrs): 73.9 ± 2.1%; increase of plantar volume in percentage with respect to carrageenan alone (carrageenan=100) ([3]; 4 hrs): 70.1 ± 1.9%; increase of plantar volume in percentage with respect to carrageenan alone (carrageenan=100) ([3]; 5 hrs): 54.5 ± 0.63%; increase of plantar volume in percentage with respect to carrageenan alone (carrageenan=100) ([3]; 6 hrs): 32.9 ± 0.41% |
| CCCCCCCCCCCCCCCC1=NCCO1 [PEA-OXA, 2-pentadecyl-2-oxazoline] | 24.2 ± 0.018 µM | > 10000 µg/mL | poorly soluble | increase of plantar volume in percentage with respect to carrageenan alone (carrageenan=100) ([3]; 30 min): 88.2 ± 2.0%; increase of plantar volume in percentage with respect to carrageenan alone (carrageenan=100) ([3]; 1 hr): 81.2 ± 2.1%; increase of plantar volume in percentage with respect to carrageenan alone (carrageenan=100) ([3]; 2 hrs): 66.6 ± 0.78%; increase of plantar volume in percentage with respect to carrageenan alone (carrageenan=100) ([3]; 3 hrs): 59.6 ± 0.62%; increase of plantar volume in percentage with respect to carrageenan alone (carrageenan=100) ([3]; 4 hrs): 51.4 ± 0.58%; increase of plantar volume in percentage with respect to carrageenan alone (carrageenan=100) ([3]; 5 hrs): 43.0 ± 0.42%; increase of plantar volume in percentage with respect to carrageenan alone (carrageenan=100) ([3]; 6 hrs): 31.2 ± 0.22%; anti-inflammatory activity with respect to PEA ([3]; rat carrageenan edema, especially between 2 and 5 hours from carrageenan): greater anti-inflammatory activity |
| CCCCCCCCCCCCCCCC1=NCCO1 [PEA-OXLE] | 32.1 ± 0.031 µM | – | poorly soluble | Solubility in ethanol [2]: > 10000 µg/mL |
| CCCCCCCCCCCCCCCCCC(=O)NCCO [SEA, Stearylethanolamide, reference compound] | > 50 µM | – | – | – |
| CCCCCCCCCCCCCCCCCC1=NCCO1 [SEA-OXA, 2-heptadecyl-2-oxazoline] | 35 ± 0.021 µM | > 10000 µg/mL | poorly soluble | melting point: 51 to 53 °C |
| NC(=O)c1cccc(-c2cccc(OC(=O)NC3CCCCC3)c2)c1 [URB597, cyclohexyl carbamic acid 3′-carbamoyl-biphenyl-3-yl ester] | – | – | – | inhibition of hepatic esterases (hepatic esterases): more than 40% |
